IC50 and Relative potency data for one compound are collected here from ChEMBL document CHEMBL1135202, “Design, synthesis and evaluation of 4-imidazolylflavans as new leads for aromatase inhibition” (Bioorg Med Chem Lett, 2002).

A word on the IC50: it is the point on the concentration scale where inhibition reaches its midpoint. Low readings indicate higher potency, high ones lower potency.

Common to all, as to set-up: species or system Placenta
Data set [1] addresses T1, Aromatase (Homo sapiens, UniProt P11511).
T1 sequence (P11511 whole entry): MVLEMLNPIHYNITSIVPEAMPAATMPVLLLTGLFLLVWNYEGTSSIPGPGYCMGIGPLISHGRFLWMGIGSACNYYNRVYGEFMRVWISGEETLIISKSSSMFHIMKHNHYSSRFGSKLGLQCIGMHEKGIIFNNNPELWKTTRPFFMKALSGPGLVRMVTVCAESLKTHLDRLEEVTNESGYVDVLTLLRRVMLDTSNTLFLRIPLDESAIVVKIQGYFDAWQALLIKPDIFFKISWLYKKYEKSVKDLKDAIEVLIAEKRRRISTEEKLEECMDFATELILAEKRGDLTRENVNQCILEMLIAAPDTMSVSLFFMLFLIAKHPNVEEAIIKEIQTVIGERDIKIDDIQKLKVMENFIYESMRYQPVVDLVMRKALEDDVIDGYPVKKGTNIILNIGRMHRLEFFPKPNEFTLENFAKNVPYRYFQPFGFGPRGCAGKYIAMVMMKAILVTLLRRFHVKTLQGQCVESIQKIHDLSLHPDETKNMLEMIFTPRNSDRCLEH
Nature of the data set: Inhibition of aromatase activity in human placental microsomes.

Data set [2] addresses T1, Aromatase. Nature of the data set: Relative potency for aromatase inhibition in human placental microsomes compared to aminoglutethimide.
The target in data set [3] is T1, Aromatase. Nature of the data set: Relative potency for aromatase inhibition in human placental microsomes compared to flavanone.

The compound `Oc1ccc2c(c1)OC(c1ccccc1)CC2n1ccnc1` (stereo not drawn) showed an IC50 on Aromatase [1] of 41 nM. The Relative potency on Aromatase [2] worked out at 127; on Aromatase [3], 93.
